Measurements published in US11873287B2, “Piperidine-2,6-dione derivatives and ulcerative colitis treating” (TIANJIN HEMAY PHARMACEUTICAL SCI-TECH CO., LTD, priority 2016, dated 2024).

How the values were obtained:
[1] = test system: DSS-Induced inflammatory Bowel Disease Models in Mice; test: DSS-induced inflammatory bowel disease model in mice (Biological Example 4, 1.3% DSS); type: in vivo, C57BL/6 mice; settings: 30 mg/Kg i.g. Q.D; for Average Length of Colon (Mean ± SD) / Inhibitory Rate of Colonic Reduction: 1.3% DSS days 0-5
Method: 40 healthy female C57BL/6 mice having weight of 16-19 g were randomly divided into 4 groups in accordance with weight. There were 10 mice in each group (see Table 6 below). The first day of the experiment was recorded as Day 0. The administration regimen and induction regimen were detailed in Table 6. The change in weight of experimental animals was recorded every day. […] Samples of animal colonic tissues were obtained to measure the length. One-way ANOVA analysis of mice weights was performed by SPSS22. Statistical analyses between groups were performed. Mann-Whitney U non-parametric test was performed on the length of colon.
The experimental method used in the present biological example is identical to those in Biological Example 3.
Calculation Formula of Inhibitory Rate of Colonic Reduction: (Length of Colon in Administration Group−Length of Colon in Model Group)/(Length of Colon in Blank Group−Length of Colon in Model Group)

ICR mice = test: Acute toxicity experiment of single oral administration in mice; type: in vivo; settings: 1000 mg/Kg single oral dose
Method: The mice were fasted one day before the experiment. On the day of the experiment, 6 mice (ICR mice, body weight of 19-21 g, three females and three males) were selected in each experiment group. First of all, one female and one male were selected to orally give 1000 mg/Kg, and observed for 5-10 minutes. If there were no obvious side effects, the remaining 4 animals were orally given the same dose, and observed for 10-15 minutes. If no animal died, the animals were placed in a box to balancedly feed for 7 days. The state was observed and the body weight was recorded daily.
Observation Indexes within 0-15 Minutes After Administration
Activity: restlessness, hyperactivity
Nervous system response: tremor, spasm, convulsion, ataxia, posture abnormality, etc.
Autonomic nerve: exophthalmos, salivation, tears, urination (hematuria), diarrhea, piloerection, breathing, etc.
Observation Indexes Over 7 Days
State of Animal: lethargy, hyperactivity, excitement, hair loss, diarrhea, abnormal behavior, death, etc.

SMILES: CNc1cccc2c1C(=O)N(C1CCC(=O)N(CCOC)C1=O)C2=O (centres unmarked) [Example 2, 4-methylamino-2-(1-(2-methoxyethyl)-2,6-dioxopiperidin-3-yl)isoindolin-1,3-dione]
- Average Length of Colon (Mean ± SD) [1]: 6.9 ± 0.2 cm
- Inhibitory Rate of Colonic Reduction [1]: 66.7%
- Weights of Experimental Mice (Mean ± SD) ([1]; Day 0): 20.1 ± 0.8 g
- Weights of Experimental Mice (Mean ± SD) ([1]; Day 1): 20.0 ± 0.7 g
- Weights of Experimental Mice (Mean ± SD) ([1]; Day 2): 19.8 ± 0.6 g
- Weights of Experimental Mice (Mean ± SD) ([1]; Day 3): 20.2 ± 0.8 g
- Weights of Experimental Mice (Mean ± SD) ([1]; Day 4): 20.2 ± 0.8 g
- Weights of Experimental Mice (Mean ± SD) ([1]; Day 5): 20.0 ± 0.6 g
- Weights of Experimental Mice (Mean ± SD) ([1]; Day 6): 18.9 ± 0.6 g
- Weights of Experimental Mice (Mean ± SD) ([1]; Day 7): 18.8 ± 0.7 g
- Weights of Experimental Mice (Mean ± SD) ([1]; Day 8): 18.8 ± 1.0 g
- Weights of Experimental Mice (Mean ± SD) ([1]; Day 9): 19.0 ± 1.1 g
- Daily Body Weight of Tested Female Mice (Mean ± SD) (ICR mice; Day 1): 19.2 ± 0.5 g
- Daily Body Weight of Tested Male Mice (Mean ± SD) (ICR mice; Day 1): 18.6 ± 0.5 g
- Daily Body Weight of Tested Female Mice (Mean ± SD) (ICR mice; Day 2): 22.7 ± 0.6 g
- Daily Body Weight of Tested Male Mice (Mean ± SD) (ICR mice; Day 2): 24.1 ± 0.4 g
- Daily Body Weight of Tested Female Mice (Mean ± SD) (ICR mice; Day 3): 23.2 ± 0.5 g
- Daily Body Weight of Tested Male Mice (Mean ± SD) (ICR mice; Day 3): 24.7 ± 0.2 g
- Daily Body Weight of Tested Female Mice (Mean ± SD) (ICR mice; Day 4): 23.2 ± 0.5 g
- Daily Body Weight of Tested Male Mice (Mean ± SD) (ICR mice; Day 4): 24.7 ± 0.2 g
- Daily Body Weight of Tested Female Mice (Mean ± SD) (ICR mice; Day 5): 24.4 ± 0.2 g
- Daily Body Weight of Tested Male Mice (Mean ± SD) (ICR mice; Day 5): 26.2 ± 0.6 g
- Daily Body Weight of Tested Female Mice (Mean ± SD) (ICR mice; Day 6): 24.6 ± 1.1 g
- Daily Body Weight of Tested Male Mice (Mean ± SD) (ICR mice; Day 6): 28.8 ± 0.5 g
- Daily Body Weight of Tested Female Mice (Mean ± SD) (ICR mice; Day 7): 24.5 ± 1.9 g
- Daily Body Weight of Tested Male Mice (Mean ± SD) (ICR mice; Day 7): 29.2 ± 0.8 g
- Summary of toxic response of tested animals in 7 Days (ICR mice; Female): Abnormality was not observed in 7 days of the test
- Summary of toxic response of tested animals in 7 Days (ICR mice; Male): Slight abnormality of activity was occasionally observed in two

SMILES: Nc1cccc2c1C(=O)N(C1CCC(=O)N(CCO)C1=O)C2=O (centres unmarked) [Example 6, 4-amino-2-(1-(2-hydroxyethyl)-2,6-dioxopiperidin-3-yl)isoindolin-1,3-dione]
- Average Length of Colon (Mean ± SD) [1]: 6.9 ± 0.3 cm
- Inhibitory Rate of Colonic Reduction [1]: 66.7%
- Weights of Experimental Mice (Mean ± SD) ([1]; Day 0): 19.8 ± 0.6 g
- Weights of Experimental Mice (Mean ± SD) ([1]; Day 1): 19.9 ± 0.7 g
- Weights of Experimental Mice (Mean ± SD) ([1]; Day 2): 19.7 ± 0.7 g
- Weights of Experimental Mice (Mean ± SD) ([1]; Day 3): 20.0 ± 0.6 g
- Weights of Experimental Mice (Mean ± SD) ([1]; Day 4): 20.0 ± 0.6 g
- Weights of Experimental Mice (Mean ± SD) ([1]; Day 5): 19.9 ± 0.7 g
- Weights of Experimental Mice (Mean ± SD) ([1]; Day 6): 19.5 ± 0.6 g
- Weights of Experimental Mice (Mean ± SD) ([1]; Day 7): 19.4 ± 0.8 g
- Weights of Experimental Mice (Mean ± SD) ([1]; Day 8): 19.5 ± 0.7 g
- Weights of Experimental Mice (Mean ± SD) ([1]; Day 9): 19.6 ± 1.1 g
- Daily Body Weight of Tested Female Mice (Mean ± SD) (ICR mice; Day 1): 17.5 ± 0.9 g
- Daily Body Weight of Tested Male Mice (Mean ± SD) (ICR mice; Day 1): 18.4 ± 0.6 g
- Daily Body Weight of Tested Female Mice (Mean ± SD) (ICR mice; Day 2): 21.5 ± 0.9 g
- Daily Body Weight of Tested Male Mice (Mean ± SD) (ICR mice; Day 2): 21.5 ± 0.9 g
- Daily Body Weight of Tested Female Mice (Mean ± SD) (ICR mice; Day 3): 21.6 ± 1.3 g
- Daily Body Weight of Tested Male Mice (Mean ± SD) (ICR mice; Day 3): 21.6 ± 1.3 g
- Daily Body Weight of Tested Female Mice (Mean ± SD) (ICR mice; Day 4): 22.0 ± 1.2 g
- Daily Body Weight of Tested Male Mice (Mean ± SD) (ICR mice; Day 4): 25.5 ± 0.5 g
- Daily Body Weight of Tested Female Mice (Mean ± SD) (ICR mice; Day 5): 22.3 ± 1.9 g
- Daily Body Weight of Tested Male Mice (Mean ± SD) (ICR mice; Day 5): 25.9 ± 0.9 g
- Daily Body Weight of Tested Female Mice (Mean ± SD) (ICR mice; Day 6): 22.4 ± 2.3 g
- Daily Body Weight of Tested Male Mice (Mean ± SD) (ICR mice; Day 6): 26.9 ± 1.1 g
- Daily Body Weight of Tested Female Mice (Mean ± SD) (ICR mice; Day 7): 22.9 ± 2.0 g
- Daily Body Weight of Tested Male Mice (Mean ± SD) (ICR mice; Day 7): 27.1 ± 1.1 g
- Summary of toxic response of tested animals in 7 Days (ICR mice; Female): Abnormality was not observed in 7 days of the test
- Summary of toxic response of tested animals in 7 Days (ICR mice; Male): Abnormality was not observed in 7 days of the test
